Assays:
Assay type in all cases: cell-based, mouse
[1] = tested on: CCR2; test: Uptake in wild-type macrophages pre-treated with CCR2 inhibitor; settings: BMS CCR2 22 10 nM, 6 h pre-treatment vs DMSO
Description: (§1) Supplementary Figure S6. A) Separate channels for main manuscript Figure 1B.
(§2) Uptake of carboxyfluorescein-labeled CCTV or VTCC in cultured bone marrow derived macrophages from B)
(§3) CCR2 knockout (KO, B6.129S4-Ccr2 /J) or wild-type (WT) mice; C) wild-type mouse-derived macrophages
(§4) pre-treated (6 h) with CCR2 inhibitor BMS CCR2 22 (10 nM) or DMSO as vehicle control. C)
(§5) (1 picture or pasted object on this page, not shown here)

[2] = tested on: RAW 264.7 cells; test: Gene expression analysis in LPS-stimulated RAW cells; settings: 1 µM, 24 h, LPS 100 ng/mL; vs VTCC or vehicle
Description: RAW 264.7 cells were seeded in 24-well plates at 1.0 x 10^5 per well with LPS (100 ng/mL) and allowed to attach overnight. After a quick wash with PBS, RNA was isolated from cells following the Trizol method. Next, RNA was reverse transcribed to cDNA, and amplified by the polymerase chain reaction (PCR) using reagents from cDNA synthesis kit, SYBR Green PCR Master Mix and target-specific TaqMan probes as indicated in Supplementary Table S1. Roche LightCycler 480 II was used to perform quantification analysis of gene expression using the ΔΔCT method as previously described,[13],[16].

[3] = tested on: CCR2; test: Uptake in macrophages from CCR2 knockout mice; settings: CCR2 KO vs wild-type, carboxyfluorescein-labeled
Description: as §1, §2, §3, §4, §5

[4] = tested on: IL-1β; test: IL-1β release, AlphaLISA; settings: inflammasome experiment supernatants, 4 experiments
Description: (§6) Cytokines were analyzed by EVE Technologies (https://www.evetechnologies.com) using the Luminex 31-Plex kit. Cell culture supernatants were diluted twice with PBS and provided in biological triplicates to EVE Technologies via overnight shipment in dry ice. Individual IL-1β and TNFɑ assays were performed using Perkin Elmer AlphaLISA kits, as per Supplementary Table S1 and vendor instructions.
(§7) BMDMs or J774 cells were plated in 48-well plates at 2 x 10^5 per well. Next day, the medium was changed to Opti-MEM (100 μL per well) without serum and the cells were allowed to equilibrate for 3 h. Next, the cells were pretreated with the indicated concentrations of nanoparticles or controls for 3 h followed by the addition of LPS to some wells to the final LPS concentration of 50 ng/mL. LPS priming continued for another 2 h, following which DMSO (vehicle), Nigericin (5 μM) or adenosine triphosphate (ATP) (1 mM) were added to some wells. Cells were incubated for an additional 30 min and cell culture supernatants were collected on ice. Cells were washed with cold PBS once and lysed/processed as described in immunoblotting section. The supernatants (90 μL) were mixed with 10 μL of 10x SDS loading buffer (10% SDS, 10% Ficoll 400, 0.5 M Tris pH 6.8, 0.5 M DTT, and 0.001% bromophenol blue) and heat-denatured as described in the immunoblotting section. […]

[5] = tested on: TNFɑ; test: TNFɑ release, AlphaLISA; settings: inflammasome experiment supernatants, 4 experiments
Description: as §6, §7

[6] = tested on: NLRP3 inflammasome (J774 cells); test: Inflammasome activation immunoblot in J774 cells; settings: additional activator ATP 1 mM
Description: BMDMs or J774 cells were plated in 48-well plates at 2 x 10^5 per well. Next day, the medium was changed to Opti-MEM (100 μL per well) without serum and the cells were allowed to equilibrate for 3 h. Next, the cells were pretreated with the indicated concentrations of nanoparticles or controls for 3 h followed by the addition of LPS to some wells to the final LPS concentration of 50 ng/mL. LPS priming continued for another 2 h, following which DMSO (vehicle), Nigericin (5 μM) or adenosine triphosphate (ATP) (1 mM) were added to some wells. Cells were incubated for an additional 30 min and cell culture supernatants were collected on ice. Cells were washed with cold PBS once and lysed/processed as described in immunoblotting section. The supernatants (90 μL) were mixed with 10 μL of 10x SDS loading buffer (10% SDS, 10% Ficoll 400, 0.5 M Tris pH 6.8, 0.5 M DTT, and 0.001% bromophenol blue) and heat-denatured as described in the immunoblotting section. Supernatants were loaded at 45 μL per lane on Bio Rad TGX Criterion 12+2 gels (4-20%) and lysates were loaded at 15 μg per lane. Immunoblotting was performed as described above.
Supplementary Figure S10. Inflammasome activation assays in J774 cells. The cells were treated as described in Methods and main text Figure 5 legend, plus additional inflammasome activator ATP that was added at 1 mM. Immunoblot was performed as described in methods. […]

[7] = tested on: cytokines in cell culture supernatants; test: Cytokine analysis, Luminex panel
Description: as §6

[8] = tested on: NLRP3 inflammasome; test: Inflammasome activation immunoblot in BMDMs; settings: LPS 50 ng/mL, nigericin 5 µM
Description: Immunoblotting was performed as previously described with the following modifications. Briefly, cell lysates were obtained in SDS lysis buffer consisting of 2% SDS, 50 mM Tris-HCl (pH 6.8), 100 mM DTT, 5% Ficoll 400, 0.0001% bromophenol blue and a cocktail of protease inhibitors. Lysates were sonicated on ice before heating at 97 °C for 7 min to completely denature the protein. Protein concentration was determined using IR spectroscopy (which is insensitive to high SDS and DTT concentrations) with a Millipore DirectDetect spectrometer. Lysates were equally loaded at 10-15 µg per lane on BioRad TGX Criterion gels (4-15%) and resolved at 300 V in Tris-Glycine running buffer. Proteins were transferred on nitrocellulose membranes using the BioRad TransBlot turbo according to the manufacturer's instructions. Membranes were blocked in fish serum (Aqua Block) or 5% nonfat dry milk in TBS-T (0.05% Tween 20) and probed overnight at 4 °C with primary antibodies as indicated in Supplementary Table S1. The membranes were washed in TBS-T and incubated with secondary antibodies for 1 h at room temperature. After washing, semi-quantitative visualization of the proteins of interest was enabled using an enhanced chemiluminescence reagent as previously described and the Azure C400 western blot imaging system.
as §7, with “section.” for “section. The supernatants (90 μL) were mixed with 10 μL of 10x SDS loading buffer (10% SDS, 10% Ficoll 400, 0.5 M Tris pH 6.8, 0.5 M DTT, and 0.001% bromophenol blue) and heat-denatured as described in the immunoblotting section.”

[9] = tested on: RAW-Blue cells; test: Nanoparticle cell-surface binding/uptake in RAW-Blue cells (rhodamine fluorescence); settings: 1 and 10 µM nanoparticles with 1% rhodamine; 550/620 nm
Description: A schematic representation of nanoparticle screening is depicted in Supplementary Figure S4. Briefly, RAW-Blue NFkB reporter cells were cultured as per the manufacturer's recommendations. Cells were seeded and cultured overnight in black opaque 96-well plates with a clear bottom at 50,000 per well. Cells were then treated with 1 and 10 µM of nanoparticles containing 1% rhodamine and positive and negative controls (see below) for 30 min on ice followed by washing steps with cold PBS. Next, lipopolysaccharide (LPS) was added at 100 ng/mL and incubated for 6 h at 37 °C, following which the cells were washed again and incubated for 18 h at 37 °C in fresh medium. Next, 20 µL of supernatant was collected and assayed using SEAP detection reagent in a separate clear bottom 96-well plate as per Invivogen instructions (http://www.invivogen.com). Absorbance at OD 650 nm was recorded and was indicative of NFkB activation. In parallel, cells in the opaque plate were washed again and fluorescence was read at 550 nm excitation and 620 nm emission. This signal from rhodamine was indicative of nanoparticle uptake. […] All analysis was performed using Molecular Devices i3 multi-mode plate reader and SoftMax Pro software version 6.2 (Molecular Devices).

## CCTV
[1]
  uptake in macrophages pre-treated with BMS CCR2 22: drastically reduced
[2]
  Il1b mRNA expression: significantly downregulated
  Il6 mRNA expression: significantly downregulated
  Nos2 mRNA expression: significantly downregulated
  Tnf mRNA expression: unaffected
[3]
  uptake in CCR2 knockout macrophages: drastically reduced
[4]
  IL-1β release: confirmed the actions of CCTV
[5]
  TNFɑ release: completely unaffected
[6]
  inflammasome deactivation in J774 cells: reproducible in J774 cells
[7]; Luminex inflammation array
  levels of 14 cytokines in supernatants: did not detect significant differences among 14 different cytokines
[7]; not statistically significant
  IL-6 cytokine: trend in CCTV-induced downregulation
  IL-12p40 cytokine: though to a lesser extent
[8]
  IL-1β and its mature form in supernatants (immunoblot): dose-dependently inhibited the production of IL-1β and its mature form
  NLRP3 protein: markedly decreased, but only in nigericin-stimulated, CCTV-treated cells
  cleaved caspase 1 levels: reduced
[9]
  cell-surface binding: high cell-surface binding

— PMC6838142, “Nano-Antagonist Alleviates Inflammation and Allows for MRI of Atherosclerosis” (Nanotheranostics, 2019)
